Several values for one entry are separate records, joined by “and”; a condition that tells them apart may be missing. Identical values can stand only once.
Experiments:
[1] = test system: patients with advanced malignancies; experiment: safety and tolerability: adverse events; format: in vivo, human; conditions: for Diarrhoea / Fatigue / Nausea / Neutropenia / Vomiting / Abdominal pain / Alopecia / Anaemia / Decreased appetite / Dehydration / Dizziness / Febrile neutropenia / Headache / Hyperbilirubinemia / Hyperglycaemia / Hyperuricemia / Hypotension / Increased ALT / Increased AST / Increased alkaline phosphatase / Leukopenia / Pancytopenia / Thrombocytopenia / Bacterial sepsis: treatment-related
[2] = test system: patients with advanced malignancies; experiment: phase 1 dose escalation: MAD, RP2D and dose-limiting toxicities; format: in vivo, human
[3] = 2-h infusion at RP2D 50 mg m^−2, fifteen patients, all grades
[4] = 8- and 24-h infusion n=26, all grades
[5] = 8- and 24-h infusion n=26, grade 3–4
[6] = 8-h infusions, 16 patients, all grades
[7] = 8-h infusions, 16 patients, grade 3 or 4
[8] = 24-h infusions, 10 patients, all grades

CCc1cnn2c(NCc3ccc[n+]([O-])c3)cc(N3CCCC[C@H]3CCO)nc12 [dinaciclib, Dinaciclib]
deaths before study treatment was discontinued ([1]; one of gram-negative sepsis (29.6 mg m^−2, part 1), others related to progressive disease): Eight
SAE bacterial sepsis ([1]; part 1): 2 (6%) n (%)
SAE febrile neutropenia ([1]; part 1): 2 (6%) n (%)
SAE hyperbilirubinemia ([1]; part 1): 3 (8%) n (%)
SAE hypotension ([1]; part 1): 3 (8%) n (%)
SAE increased AST ([1]; part 1): 2 (6%) n (%)
SAE neutropenia ([1]; part 1): 4 (11%) n (%)
SAE febrile neutropenia ([1]; part 2): 2 (8%) n (%)
SAE hypotension ([1]; part 2): 3 (12%) n (%)
SAE neutropenia ([1]; part 2): 2 (8%) n (%)
patients with serious AEs (SAEs) ([1]; part 2 (8- and 24-h infusions)): 10 (38%) n (%)
Diarrhoea [1, 3]: 8 (53%) n (%)
Fatigue [1, 3]: 9 (60%) n (%)
Nausea [1, 3]: 12 (80%) n (%)
Neutropenia [1, 3]: 9 (60%) n (%)
Vomiting [1, 3]: 11 (73%) n (%)
Abdominal pain ([1]; 2-h infusion n=35, all grades): 2 (6) n (%)
Alopecia ([1]; 2-h infusion n=35, all grades): 4 (11) n (%)
Anaemia ([1]; 2-h infusion n=35, all grades): 4 (11) n (%)
Decreased appetite ([1]; 2-h infusion n=35, all grades): 5 (14) n (%)
Dehydration ([1]; 2-h infusion n=35, all grades): 3 (9) n (%)
Diarrhoea ([1]; 2-h infusion n=35, all grades): 16 (46%) n (%) and 16 (46) n (%)
Dizziness ([1]; 2-h infusion n=35, all grades): 3 (9) n (%)
Fatigue ([1]; 2-h infusion n=35, all grades): 13 (37%) n (%) and 13 (37) n (%)
Febrile neutropenia ([1]; 2-h infusion n=35, all grades): 2 (6) n (%)
Headache ([1]; 2-h infusion n=35, all grades): 4 (11) n (%)
Hyperbilirubinemia ([1]; 2-h infusion n=35, all grades): 3 (9) n (%)
Hyperglycaemia ([1]; 2-h infusion n=35, all grades): 1 (3) n (%)
Hyperuricemia ([1]; 2-h infusion n=35, all grades): 2 (6) n (%)
Hypotension ([1]; 2-h infusion n=35, all grades): 3 (9) n (%)
Increased ALT ([1]; 2-h infusion n=35, all grades): 4 (11) n (%)
Increased AST ([1]; 2-h infusion n=35, all grades): 6 (17) n (%)
Increased alkaline phosphatase ([1]; 2-h infusion n=35, all grades): 1 (3) n (%)
Leukopenia ([1]; 2-h infusion n=35, all grades): 8 (23) n (%)
Nausea ([1]; 2-h infusion n=35, all grades): 23 (66%) n (%) and 23 (66) n (%)
Neutropenia ([1]; 2-h infusion n=35, all grades): 18 (51%) n (%) and 18 (51) n (%)
Pancytopenia ([1]; 2-h infusion n=35, all grades): 1 (3) n (%)
Thrombocytopenia ([1]; 2-h infusion n=35, all grades): 1 (3) n (%)
Vomiting ([1]; 2-h infusion n=35, all grades): 23 (66%) n (%) and 23 (66) n (%)
Abdominal pain ([1]; 2-h infusion n=35, grade 3–4): 0 n (%)
Alopecia ([1]; 2-h infusion n=35, grade 3–4): 0 n (%)
Anaemia ([1]; 2-h infusion n=35, grade 3–4): 0 n (%)
Decreased appetite ([1]; 2-h infusion n=35, grade 3–4): 0 n (%)
Dehydration ([1]; 2-h infusion n=35, grade 3–4): 1 (3) n (%)
Diarrhoea ([1]; 2-h infusion n=35, grade 3–4): 0 n (%)
Dizziness ([1]; 2-h infusion n=35, grade 3–4): 0 n (%)
Fatigue ([1]; 2-h infusion n=35, grade 3–4): 0 n (%)
Febrile neutropenia ([1]; 2-h infusion n=35, grade 3–4): 2 (6%) n (%) and 2 (6) n (%)
Headache ([1]; 2-h infusion n=35, grade 3–4): 0 n (%)
Hyperbilirubinemia ([1]; 2-h infusion n=35, grade 3–4): 0 n (%)
Hyperglycaemia ([1]; 2-h infusion n=35, grade 3–4): 1 (3) n (%)
Hyperuricemia ([1]; 2-h infusion n=35, grade 3–4): 2 (6%) n (%) and 2 (6) n (%)
Hypotension ([1]; 2-h infusion n=35, grade 3–4): 1 (3) n (%)
Increased ALT ([1]; 2-h infusion n=35, grade 3–4): 2 (6%) n (%) and 2 (6) n (%)
Increased AST ([1]; 2-h infusion n=35, grade 3–4): 3 (9%) n (%) and 3 (9) n (%)
Increased alkaline phosphatase ([1]; 2-h infusion n=35, grade 3–4): 1 (3) n (%)
Leukopenia ([1]; 2-h infusion n=35, grade 3–4): 6 (17%) n (%) and 6 (17) n (%)
Nausea ([1]; 2-h infusion n=35, grade 3–4): 0 n (%)
Neutropenia ([1]; 2-h infusion n=35, grade 3–4): 16 (46%) n (%) and 16 (46) n (%)
Pancytopenia ([1]; 2-h infusion n=35, grade 3–4): 1 (3) n (%)
Thrombocytopenia ([1]; 2-h infusion n=35, grade 3–4): 1 (3) n (%)
Vomiting ([1]; 2-h infusion n=35, grade 3–4): 1 (3) n (%)
Abdominal pain [1, 4]: 1 (4) n (%)
Alopecia [1, 4]: 2 (8) n (%)
Anaemia [1, 4]: 3 (12) n (%)
Bacterial sepsis [1, 4]: 1 (4) n (%)
Decreased appetite [1, 4]: 2 (8) n (%)
Dehydration [1, 4]: 2 (8) n (%)
Diarrhoea [1, 4]: 7 (27) n (%)
Dizziness [1, 4]: 2 (8) n (%)
Fatigue [1, 4]: 10 (38) n (%)
Febrile neutropenia [1, 4]: 2 (8) n (%)
Headache [1, 4]: 0 n (%)
Hyperbilirubinemia [1, 4]: 1 (4) n (%)
Hyperglycaemia [1, 4]: 0 n (%)
Hyperuricemia [1, 4]: 0 n (%)
Hypotension [1, 4]: 5 (19) n (%)
Increased ALT [1, 4]: 1 (4) n (%)
Increased AST [1, 4]: 2 (8) n (%)
Increased alkaline phosphatase [1, 4]: 3 (12) n (%)
Leukopenia [1, 4]: 0 n (%)
Nausea [1, 4]: 9 (35) n (%)
Neutropenia [1, 4]: 7 (27) n (%)
Pancytopenia [1, 4]: 0 n (%)
Thrombocytopenia [1, 4]: 1 (4) n (%)
Vomiting [1, 4]: 7 (27) n (%)
Abdominal pain [1, 5]: 1 (4) n (%)
Alopecia [1, 5]: 0 n (%)
Anaemia [1, 5]: 0 n (%)
Bacterial sepsis [1, 5]: 1 (4) n (%)
Decreased appetite [1, 5]: 0 n (%)
Dehydration [1, 5]: 0 n (%)
Diarrhoea [1, 5]: 0 n (%)
Dizziness [1, 5]: 0 n (%)
Fatigue [1, 5]: 2 (8) n (%)
Febrile neutropenia [1, 5]: 2 (8) n (%)
Headache [1, 5]: 0 n (%)
Hyperbilirubinemia [1, 5]: 1 (4) n (%)
Hyperglycaemia [1, 5]: 0 n (%)
Hyperuricemia [1, 5]: 0 n (%)
Hypotension [1, 5]: 2 (8) n (%)
Increased ALT [1, 5]: 0 n (%)
Increased AST [1, 5]: 1 (4) n (%)
Increased alkaline phosphatase [1, 5]: 2 (8) n (%)
Leukopenia [1, 5]: 0 n (%)
Nausea [1, 5]: 0 n (%)
Neutropenia [1, 5]: 6 (23) n (%)
Pancytopenia [1, 5]: 0 n (%)
Thrombocytopenia [1, 5]: 0 n (%)
Vomiting [1, 5]: 0 n (%)
Diarrhoea [1, 6]: 7 (44%) n (%)
Fatigue [1, 6]: 8 (50%) n (%)
Nausea [1, 6]: 7 (44%) n (%)
Neutropenia [1, 6]: 7 (44%) n (%)
Vomiting [1, 6]: 6 (38%) n (%)
Febrile neutropenia [1, 7]: 2 (13%) n (%)
Hypotension [1, 7]: 2 (13%) n (%)
Neutropenia [1, 7]: 6 (38%) n (%)
Fatigue [1, 8]: 2 (20%) n (%)
Increased AST [1, 8]: 2 (20%) n (%)
Increased alkaline phosphatase [1, 8]: 2 (20%) n (%)
Nausea [1, 8]: 2 (20%) n (%)
Fatigue ([1]; 24-h infusions, 10 patients, grade 3 or 4): 2 (20%) n (%)
recommended phase 2 dose (RP2D) ([2]; 2-h i.v. infusion every 21 days): 50 mg m^−2
maximum administered dose (MAD) ([2]; 2-h infusion): 58 mg m^−2
No of subjects with DLT in cycle 1 ([2]; 2-hour infusion, 50 mg/m2 (RP2D), 15 subjects treated): 4 of 15
recommended phase 2 dose (RP2D) ([2]; 8-h i.v. infusion every 3 weeks): 7.4 mg m^−2
recommended phase 2 dose (RP2D) / highest safe dose ([2]; 24-h i.v. infusion every 3 weeks): 10.4 mg m^−2

Source: paper PMC5672931 (British Journal of Cancer, 2017)
